We go through 19 molecules from patent US20080045514A1 (Cytovia, Inc., priority 2006, published 2008).

SMILES strings stand for the structures.

Holding throughout (type): cell-based
Assay [1] concerns human hepatocellular carcinoma cell line SNU398. Put plainly: Caspase cascade activation (EC50), SNU398. The settings on record: Homo sapiens, SNU-398; SNU398 cells; caspase cascade activation; read-out: caspase potency (EC50) SNU398. Summed up: (§1)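 48 h compound exposure (0.016–10 μM final) at 37 °C, 5% CO2; then DEVD-R110 substrate in lysolecithin/DTT/PIPES pH 7.2 buffer, 3 h RT. Fluorescence ex485/em530; net RFU = T=3 h minus control T=0; ratio to control; sigmoidal fit → EC50 (nM).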

Assay [2] has as its system human breast cancer cell line T-47D. Put plainly: Caspase cascade activation (EC50), T-47D. The settings on record: Homo sapiens; T47D cells; caspase cascade activation; read-out: caspase potency (EC50) T47D. Summed up: as §1
Assay [3] relates to human colon carcinoma cell line HCT116. Put plainly: Caspase cascade activation (EC50), HCT116. The settings on record: Homo sapiens, HCT-116; HCT116 cells; caspase cascade activation; read-out: caspase potency (EC50) HCT116. Summed up: as §1
Assay [4] has as its system human cancer cell line H1299. Put plainly: Caspase cascade activation (EC50), H1299. The settings on record: NCI-H1299, H1299 cells, read-out: caspase potency (EC50) H1299. The procedure: (§2) Human breast cancer cell lines T-47D, human hepatocellular carcinoma cell line SNU398, human colon carcinoma cell line HCT116, human cancer cell line H1299, human Burkitt's lymphoma cell line Namalwa, human lymphoma cell line Raji, and human B cell lymphoblastoid cell line Ramos were grown according to media component mixtures designated by American Type Culture Collection+10% FCS (Invitrogen Corporation), in a 5% CO2-95% humidity incubator at 37° C. T-47D and H1299 cells were maintained at a cell density between 50 and 80% confluency at a cell density of 0.1 to 0.6×10^6 cells/mL. Cells were harvested at 600×g and resuspended at 0.65×10^6 cells/mL into appropriate media+10% FCS. An aliquot of 22.5 μL of cells was added to a well of a 384-well microtiter plate containing 2.5 μL of a 10% DMSO in RPMI-1640 media solution containing 0.16 to 100 μM of 3-(2-chlorophenyl)-6-(3,4-methylenedioxyphenyl)-7H-[1,2,4]triazolo[3,4-b][1,3,4]thiadiazine or other test compound (0.016 to 10 μM final). An aliquot of 22.5 μL of cells was added to a well of a 384-well microtiter plate containing 2.5 μL of a 10% DMSO in RPMI-1640 media solution without test compound as the control sample. The samples were mixed by agitation and then incubated at 37° C. for 48 h in a 5% CO2-95% humidity incubator. After incubation, the samples were removed from the incubator and 25 μL of a solution containing 14 μM of N—(Ac-DEVD)-N′-ethoxycarbonyl-R110 (SEQ ID No.:1) fluorogenic substrate (Cytovia, Inc.; WO99/18856), 20% sucrose (Sigma), 20 mM DTT (Sigma), 200 mM NaCl (Sigma), 40 mM Na PIPES buffer pH 7.2 (Sigma), and 500 μg/mL lysolecithin (Calbiochem) was added. The samples were mixed by agitation and incubated at room temperature. Using a fluorescent plate reader (Model SPECTRAfluor Plus, Tecan), an initial reading (T=0) was made approximately 1-2 min after addition of the substrate solution, employing excitation at 485 nm and emission at 530 nm, to determine the background fluorescence of the control sample. After the 3 h incubation, the samples were read for fluorescence as above (T=3 h). Calculation: The Relative Fluorescence Unit values (RFU) were used to calculate the sample readings as follows: RFU(T=3H)−Control RFU(T=0)=Net RFU(T=3h) The activity of caspase cascade activation was determined by the ratio of the net RFU value for 3-(2-chlorophenyl)-6-(3,4-methylenedioxyphenyl)-7H-[1,2,4]triazolo[3,4-b][1,3,4]thiadiazine (Example P) or other test compound to that of control samples. The EC50 (nM) was determined by a sigmoidal dose-response calculation (Prism 3.0, GraphPad Software Inc.).

For assay [5], the system named is human Burkitt's lymphoma cell line Namalwa. The experiment in a line: Caspase cascade activation (EC50), Namalwa. The settings on record: Homo sapiens, Burkitts lymphoma cell; Namalwa cells; caspase cascade activation; read-out: caspase potency (EC50) Namalwa. Summed up:
as §1

In assay [6] the test system is human B cell lymphoblastoid cell line Ramos. Put plainly: Caspase cascade activation (EC50), Ramos. The settings on record: Homo sapiens, RAMOS cells, read-out: caspase potency (EC50) RAMOS. How it is done: as §2
Assay [7] concerns human lymphoma cell line Raji. Put plainly: Caspase cascade activation (EC50), Raji. The settings on record: Homo sapiens, RAJI cells, read-out: caspase potency (EC50) RAJI. The procedure: as §2

As for `COc1cccc(-c2nnc3n2N=C(c2ccc4ccccc4c2)CS3)c1` [Example B1, 3-(3-Methoxyphenyl)-6-(2-naphthyl)-7H-[1,2,4]triazolo[3,4-b][1,3,4]thiadiazine], the EC50 – broadly, the concentration giving half of the maximal effect – is 930 nM in assay [1], 1420 nM in assay [2], 1310 nM in assay [3] and 1710 nM in assay [4].
With `COc1ccc(-c2nnc3n2N=C(c2cc(OC)ccc2OC)CS3)cc1` [H, 3-(4-Methoxyphenyl)-6-(2,5-dimethoxyphenyl)-7H-[1,2,4]triazolo[3,4-b][1,3,4]thiadiazine], the EC50 is 1230 nM in assay [1]; 1180 nM in assay [5]; 1270 nM in assay [6]; 2330 nM in assay [7]; 2440 nM in assay [2]; more than 10000 nM in assay [3]. Moreover, in assay [4], the EC50 was found to be 2420 nM.
Consider `CCOc1ccc(C2=Nn3c(nnc3-c3ccccc3Cl)SC2)cc1` [O, 3-(2-Chlorophenyl)-6-(4-ethoxyphenyl)-7H-[1,2,4]triazolo[3,4-b][1,3,4]thiadiazine], for which the EC50 is 129 nM in assay [1], 1340 nM in assay [2], 279 nM in assay [3] and 1000 nM in assay [4].
In the same order, the values of `CCOc1ccc(C2=Nn3c(nnc3-c3cccc(OC)c3)SC2)cc1` [Z, 3-(3-Methoxyphenyl)-6-(4-ethoxyphenyl)-7H-[1,2,4]triazolo[3,4-b][1,3,4]thiadiazine] are 331 nM, 2810 nM, 693 nM and 2330 nM.
In the same order, the values of `CCOc1cccc(-c2nnc3n2N=C(c2ccc(OC)cc2)CS3)c1` [Example D1, 3-(3-Ethoxyphenyl)-6-(4-methoxyphenyl)-7H-[1,2,4]triazolo[3,4-b][1,3,4]thiadiazine] are 778 nM, 2300 nM, 1500 nM and 2710 nM.
For `COc1ccc(C2=Nn3c(nnc3-c3ccc(C)cc3)SC2)cc1OC` [A, 3-(4-Methylphenyl)-6-(3,4-dimethoxyphenyl)-7H-[1,2,4]triazolo[3,4-b][1,3,4]thiadiazine], the EC50 in assay [2] turned out to be 2420 nM; in assay [4], 2730 nM.
In the case of `COc1cc(-c2nnc3n2N=C(c2ccccc2)CS3)cc(OC)c1OC` [Example S1, 3-(3,4,5-Trimethoxyphenyl)-6-phenyl-7H-[1,2,4]triazolo[3,4-b][1,3,4]thiadiazine], the EC50 in assay [1] stood at 226 nM; in assay [5] it was 313 nM; in assay [6], 316 nM; in assay [7], 619 nM; in assay [2], 323 nM; in assay [3], 284 nM. The EC50 in assay [4] is 1260 nM.
Consider `CCOc1ccc(C2=Nn3c(nnc3-c3cc(OC)c(OC)c(OC)c3)SC2)cc1` [Example T1, 3-(3,4,5-Trimethoxyphenyl)-6-(4-ethoxyphenyl)-7H-[1,2,4]triazolo[3,4-b][1,3,4]thiadiazine], for which the EC50 in assay [1] was 519 nM; in assay [5], 510 nM; in assay [6] it was 498 nM; in assay [7], 656 nM; in assay [2], 2580 nM; in assay [3], more than 10000 nM. In addition, in assay [4], the EC50 is 2580 nM.
Regarding `CCOc1ccc(C2=Nn3c(nnc3-c3ccccc3OC)SC2)cc1` [Example B2, 3-(2-Methoxyphenyl)-6-(4-ethoxyphenyl)-7H-[1,2,4]triazolo[3,4-b][1,3,4]thiadiazine], the EC50 in assay [1] stood at 30 nM; in assay [5], 106 nM; in assay [2], 175 nM; in assay [3] it was 40 nM; in assay [4], 106 nM.
`CCOc1ccc(C2=Nn3c(nnc3-c3ccc(Cl)cc3Cl)SC2)cc1` [Example H1, 3-(2,4-Dichlorophenyl)-6-(4-ethoxyphenyl)-7H-[1,2,4]triazolo[3,4-b][1,3,4]thiadiazine]: the EC50 in assay [1] is 41 nM; in assay [2] it was 553 nM; in assay [3] it was 161 nM; in assay [4], 2010 nM.
`COc1ccc(C2=Nn3c(nnc3-c3ccc(Cl)cc3)SC2)cc1OC` [E, 3-(4-Chlorophenyl)-6-(3,4-dimethoxyphenyl)-7H-[1,2,4]triazolo[3,4-b][1,3,4]thiadiazine]: the EC50 in assay [2] was found to be 1880 nM; in assay [4] it was 2100 nM.
For the molecule `COc1ccc(-c2nnc3n2N=C(c2ccc4c(c2)OCO4)CS3)cc1` [J, 3-(4-Methoxyphenyl)-6-(3,4-methylenedioxyphenyl)-7H-[1,2,4]triazolo[3,4-b][1,3,4]thiadiazine], the EC50 in assay [1] is 2550 nM; in assay [5], more than 10000 nM; in assay [6], more than 1000 nM; in assay [7] it was more than 1000 nM; in assay [2], 3270 nM; in assay [3] it was more than 10000 nM. In addition, in assay [4], the EC50 came to 2930 nM.
For `COc1cccc(-c2nnc3n2N=C(c2ccc4c(c2)OCO4)CS3)c1` [Example A1, 3-(3-Methoxyphenyl)-6-(3,4-methylenedioxyphenyl)-7H-[1,2,4]triazolo[3,4-b][1,3,4]thiadiazine], the EC50 was determined as 390 nM in assay [1]; 426 nM in assay [5]; 447 nM in assay [6]; 507 nM in assay [7]; 500 nM in assay [2]; 546 nM in assay [3]. Further, the EC50 in assay [4] came to 2490 nM.
In the case of `Clc1cccc(-c2nnc3n2N=C(c2ccc4c(c2)OCO4)CS3)c1` [S, 3-(3-Chlorophenyl)-6-(3,4-methylenedioxyphenyl)-7H-[1,2,4]triazolo[3,4-b][1,3,4]thiadiazine], the EC50 is 1630 nM in assay [1]; more than 10000 nM in assay [5]; more than 1000 nM in assay [6]; more than 1000 nM in assay [7]; more than 10000 nM in assay [2]; more than 10000 nM in assay [3]. In assay [4], the EC50 is more than 10000 nM.
As for `Cc1cccc(-c2nnc3n2N=C(c2ccc4ccccc4c2)CS3)c1` [U, 3-(3-Methylphenyl)-6-(2-naphthyl)-7H-[1,2,4]triazolo[3,4-b][1,3,4]thiadiazine], the EC50 came out at 5540 nM in assay [2] and 3570 nM in assay [4].
As to `Clc1ccccc1-c1nnc2n1N=C(c1ccc(Br)cc1)CS2` [Q, 3-(2-Chlorophenyl)-6-(4-bromophenyl)-7H-[1,2,4]triazolo[3,4-b][1,3,4]thiadiazine], the results for the EC50 in assay [2] and in assay [4] were 5350 nM and 5140 nM, respectively.
The like results for `CCOc1ccc(-c2nnc3n2N=C(c2ccc(O)c(O)c2)CS3)cc1` [Example F1, 3-(4-Ethoxyphenyl)-6-(3,4-dihydroxyphenyl)-7H-[1,2,4]triazolo[3,4-b][1,3,4]thiadiazine] were, in that order, 2580 nM and 2640 nM.
For the molecule `CCOc1ccc(C2=Nn3c(nnc3-c3ccc(OC)cc3)SC2)cc1` [I, 3-(4-Methoxyphenyl)-6-(4-ethoxyphenyl)-7H-[1,2,4]triazolo[3,4-b][1,3,4]thiadiazine], the EC50 in assay [1] came out at 1010 nM; in assay [2] it was 2490 nM; in assay [3] it was 1580 nM; in assay [4], 1820 nM.
For the molecule `Clc1ccc(-c2nnc3n2N=C(c2ccccc2)CS3)c(Cl)c1` [Example J1, 3-(2,4-Dichlorophenyl)-6-phenyl-7H-[1,2,4]triazolo[3,4-b][1,3,4]thiadiazine], the EC50 amounted to 2870 nM in assay [2] and 2590 nM in assay [4].
